Converted amounts (≈) assume the structure as drawn. “Also recorded” adds a separate entry of the source.
Experiments:
[1] = Solubility; type: physicochemical
[2] = biological target: T1, KRAS^G12V-GppNHp + scFv complex (Homo sapiens, UniProt P01116, G12V); test: waterLOGSY NMR competition with anti-RAS scFv; type: binding
T1 construct: GST (N); made in house; host or cells: E. coli
Experimental: (§1) The waterLOGSY NMR method[35] was used to measure RAS ligand interaction. WaterLOGSY experiments were conducted at a ^1H frequency of 600 MHz using a Bruker Avance spectrometer equipped with a BBI probe. All experiments were conducted at 298 K, 3 mm diameter NMR tubes with a sample final volume of 200 µl was used in all experiments. Solutions were buffered using an H2O 10 mM PBS, 5 mM MgCl2 buffer corrected to pH 7.4. The sample preparation is exemplified as follows, the compound (10 µl of a […] solution in DMSO-d6) was added to an eppendorf before sequential addition of the H2O PBS buffer (163.6 µl), D2O (20 µl), and protein (6.4 µl, 311.8 µM). The resulting solution was spun to ensure full mixing and transferred to a 3 mm NMR tube before running the experiment. For a competition experiment using Y6-scFv or VH, the preparation was carried out in a similar manner; the compound (10 µl of a 10 mM solution in DMSO-d6) was added to an eppendorf before sequential addition of the H2O PBS buffer (146.4 µl), D2O (20 µl), protein (6.4 µl, 311.8 µM) and Y6-ScFv (17.2 µl, 116.6 µM) with a ratio of 5.5:1:1. The resulting solution was spun and transferred to a 3 mm NMR tube before the run. […]
(§2) Supplementary Figure 3: Abd-2 WaterLOGSY NMR with and without anti RAS-scFV Abd-2 was analyzed by waterLOGSY. […]

[3] = biological target: T2, HRASG12V-GTPγS (Homo sapiens, UniProt P01112, G12V); test: waterLOGSY NMR titration for Kd; type: binding
T2 construct: expression of HRAS (1-166) HRAS^G12V or KRAS^G12V cDNA cloned into the pGEX-2T vector; GST (N); made in house; host or cells: E. coli C41(DE3)
Experimental: The waterLOGSY NMR method[35] was used to measure RAS ligand interaction. WaterLOGSY experiments were conducted at a ^1H frequency of 600 MHz using a Bruker Avance spectrometer equipped with a BBI probe. All experiments were conducted at 298 K, 3 mm diameter NMR tubes with a sample final volume of 200 µl was used in all experiments. Solutions were buffered using an H2O 10 mM PBS, 5 mM MgCl2 buffer corrected to pH 7.4. The sample preparation is exemplified as follows, the compound (10 µl of a […] solution in DMSO-d6) was added to an eppendorf before sequential addition of the H2O PBS buffer (163.6 µl), D2O (20 µl), and protein (6.4 µl, 311.8 µM). The resulting solution was spun to ensure full mixing and transferred to a 3 mm NMR tube before running the experiment. […]
NMR spectra from the Abd-2 titration ranging from 50 to 400μM compound. The dissociation constant of Abd-2 binding to HRASG12V-GTPγS was determined from the curve generated by plotting the reduction of the NMR signal from a selected peak (depicted in green) during the compound titration against the protein. […]

[4] = system: KRAS-GDP; test: waterLOGSY NMR binding to GDP form
Experimental: as §1, §2

[5] = Caco-2 cell permeability assay; type: in vitro ADME; conditions: human
[6] = system: ERK1/2 phosphorylation in DLD-1 cells (KRAS^G13D); test: Biomarker phosphorylation assay, pERK, DLD-1; type: cell-based, human; conditions: DLD-1, 2-20 μM, 3 h, EGF 10 min
Experimental: Fig. 5 Abd-7 results on RAS-dependent signalling pathways and cell viability. a, b DLD-1 (a) or H358 (b) cells were serum-starved for 24 h, incubated in mono-layer with Abd-7 in a range from 2, 5, 10 and 20 μM for 3 h and stimulated with EGF 10 min. Proteins were extracted and separated by SDS-PAGE and transferred to membranes for Western analysis with anti-pAKT, anti-pERK, anti-pan AKT and anti-pan ERK. Anti-cyclophilin B antibody was the loading control. Signal was developed using standard ECL. c–e Effects of compounds Abd-2, Abd-4, Abd-5, Abd-6, and Abd-7 on the viability of human cancer cells lines was assessed for a 2-D culture of DLD-1 (mutant KRAS^G13D) cells and HT1080 cells (mutant NRAS^Q61K). The cells were treated with a dose range from 0 μM to 20 μ and incubated for 72 h when cell viability was assessed using CellTitreGlo. […] Each experiment was repeated at least three times (a, b) and four times (c, d). Where error bars are presented, they correspond to mean values ± SD of biological repeats
A total of 450,000 DLD1 or 640,000 H358 cells were seeded per well of a six well plate. Approximately, 20 h later, the medium was removed, the cells washed twice with PBS and DMEM without FBS was added and left for 24 h. […] Cell lysates were sonicated with a Branson Sonifier and the protein concentrations determined by using the Pierce BCA protein assay kit (Thermo-Fisher). […]

solubility [1] [µM] | ligand efficiency [3] | Kd ([3]; waterLOGSY titration 50 to 400 μM compound, single experimental analysis, read-out: Kd (dissociation constant)) [µM] | binding to KRAS-GDP (waterLOGSY) [4] | Papp A→B [5] [×10⁻⁶ cm/s] | Papp B→A [5] [×10⁻⁶ cm/s] | SMILES | binding to KRAS^G12V-GppNHp in the presence of anti-RAS scFv (waterLOGSY) [2] | inhibition of ERK1/2 phosphorylation [6]
446 (≈ 116 µg/mL) | 0.26 | 235 | poor binding | – | – | O=C(NCC1COc2ccccc2O1)c1ccco1 (centres unmarked) [Abd-2] | no longer binds; also recorded: no binding | –
– | – | – | – | 7.03 | 8.46 | COc1nc(-c2cccc3c2OCCO3)ccc1Nc1ccc(CN(C)C)cc1 [Abd-7] | – | diminution of pERK levels
